According to US8318954B2, “Cleavable carnitine compound” (Nou Life Sciences, Inc., priority 2006, dated 2012):
Entries after “also recorded” stand apart in the source; their conditions may differ.

Key:
[1] = tested on: streptozotocin-induced diabetic rats; settings: 20 mg/kg/day for two weeks, six weeks after diabetes induction; vs untreated diabetic rats; cited from earlier work
Wobbler mice = settings: twenty days oral, acetyl L-carnitine 200 mg/kg, carnitine mixture 200 mg/kg, α-lipoic acid 50 mg/kg; cited from earlier work
diabetic rats [2] = settings: streptozocin diabetic rats, sciatic nerve; amount administered not specified; cited from earlier work
rats = settings: 10 mg/kg cisplatin s.c. seven days, oral 300 mg/kg acetyl L-carnitine, 300 mg/kg carnitine mixture, 50 mg/kg α-lipoic acid; cited from earlier work
diabetic rats [3] = settings: diabetic rat, 30 days after sciatic nerve cutting; diet: 200 mg/kg acetyl L-carnitine, 200 mg/kg carnitine mixture, 50 mg/kg α-lipoic acid daily; cited from earlier work
[4] = tested on: diabetic polyneuropathy patients; settings: cited from earlier work
mice and rats = settings: mice and rats, cited from earlier work
C. elegans [5] = experiment: Thermal avoidance (TAV) 11 step dose response testing; assay type: in vivo; settings: highest concentration of LC, laser intensities 0% to 100% in 10% intervals, quadruplicate
Experimental: One 24 well microtiter plate was set up and incubated overnight on the shaker at 20° C. Each well on the plate was set up with 600 L3/L4-stage N2 animals in NGM with a 1:20 dilution of concentrated HB101 E. coli (food source) in a volume of 300 μl. Before the animal/HB101 solution was added, test compounds were pipetted into wells. For DMSO controls and compound stocks/dilutions in DMSO (LC) 3 μl was added to each well (1:100 dilutions). No OD620 measurements were taken but the animals were visually scored after 22 h incubation).
Dose Responses—setup & general notes on analysis: Same as for previous dose response experiments except that the data collection settings were modified. Per plate settings for the dose response experiments were as follows: […]

C. elegans [6] = experiment: Toxicity testing in C. elegans, 96 well plate, bacterial clearance (OD620); assay type: in vivo; settings: highest concentration tested, 2 mM; L1-stage N2 animals, OD620 up to 44 hours; listed as LC
Experimental: The work plan included a i) characterization of the compounds for toxicity in C. elegans and then, using subtoxic concentrations, a ii) characterization of compound effects on neuronal sensitivity as detected by TAV technology. Toxicity characterization follows a well established standard operating protocol used in previous toxicity-type assays in C. elegans. The initial TAV characterization of compound-mediated effects on C. elegans used a number of compound concentrations and incubation times that were selected by NemaRx as being most likely to detect any TAV-related effects that the compounds may have. […] 0% provides a ‘background’ measure, 6% typically gives intermediate TAV responses (and as such should provide a good starting point to detect compound-mediated increased TAV responses), and 12% usually gives robust responses. No obvious effects were detected for either of the four compounds. While the experimental setup provides a good first pass, the limitation lies in the relatively small number of animals that are assayed at each intensity (30). Subtle effects compound-mediated up-regulation at 6% laser intensity may be missed. • Single Intensity Testing: The two highest non-toxic compound concentrations for each of the four compounds were tested at 6% laser intensity. The number of datapoints collected was between 50-80 LA and >100 for the three other compounds. […] The experiment was carried out in quadruplicate. […] Stock Dilution Setup
Two 96 well microtiter plates set up which were incubated at 20 C (both 96 well plates were identical, i.e. the experiment was done in duplicate). Each well on the plates was set up with 100 L1-stage N2 animals in NGM with a 1:20 dilution of concentrated HB101 E. coli (food source) in a volume of 50 μl. Compounds (see below) were then added to the wells. For water controls and compound stocks/dilutions in water (DH LA, NAC) 1 μl was added to each well (1:50 dilutions). For DMSO controls and compound stocks/dilutions in DMSO (LA) 0.5 μl was added to each well (1:100 dilutions). […]

[7] = Hydrolysis study of LC Conjugate (pH/time study, followed by TLC); assay type: physicochemical
Experimental: Control: Free lipoic acid 1% solution in methanol/water
Substrate: LC Conjugate, 3% solution in methanol
A study on the stability and cleavability of LC Conjugate was performed in water at pH ranged from 5.5 to 8.0 at RT (20° C.).
The pH was adjusted using NaOH and HCl solutions.
Since substrate and cleaved products are non-UV sensitive, TLC was used to follow the progress of hydrolysis.

## O=C(O)CCCCC1CCSS1 (centres unmarked) [LA, Lipoic acid]
[1]
  sciatic endoneutral blood flow: improved
  sciatic motor nerve NCV: improved
Wobbler mice
  % increase in running time: 40 ± 3.9%
Diabetic rats [2]
  NMCV: 39.9 ± 2.1 m/sec
rats
  Equilibrium time: 9.9 ± 0.8 s
Diabetic rats [3]
  Density of tibial nerve degenerate elements: 0.20 ± 0.04 per 100 nm^2
  Number of tibial nerve degenerate elements: 590 ± 0.70
[4]; 600 mg i.v. per day for 3 weeks
  neuropathic symptoms and defects: appears to reduce pain, paraethesia and numbness, and to improve neuropathic defects
[4]; subsequent oral treatment for 4-7 months
  neuropathic defects and cardiac autonomic neuropathy: reduces neuropathic defects an improves cardiac autonomic neuropathy
Mice and rats; individually or in combination at high doses
  tolerability and toxicity: good tolerability and limited toxicity
Mice and rats; parenteral
  dose that can be parenterally administered: ≤ 100 mg/kg

## Acetyl-L-Carnitine-Lipoic acid conjugate [LC Conjugate]
C. elegans [5]; listed as LC
  sensitivity / response rate in 11 step dose response: increases sensitivity not at lower stimulus intensities, but instead at higher intensities
C. elegans [5]; listed as Lipoic Acid+N-Acetyl Carnitine conjugate
  sensitivity / response rate in 11 step dose response: Possible higher response rate at higher stimulus intensities
C. elegans [6]
  toxicity: No toxic effects; also recorded: no toxicity observed
[7]; under experimental conditions
  cleavability: completely cleavable
[7]; water, pH 5.5 to 8.0, RT
  Rate of hydrolysis (cleavage): pH dependent
[7]; water, pH 6.0, RT (20° C.), TLC, visual observation
  hydrolysis: Mild hydrolysis
[7]; water, pH 7.0 and above, RT (20° C.), TLC, visual observation
  rate of hydrolysis: quite noticeable
[7]; water, pH 8.0, RT (20° C.), TLC, visual observation
  time within which almost complete hydrolysis was noted: ≤ 90 min
[7]; water, under pH 5.0, RT (20° C.), TLC, visual observation
  stability: stable
